Measurements from patent US9725457B2, “6-amido derivatives of 4, 5-a epoxymorphinans for the treatment of pain” (Sloan-Kettering Institute for Cancer Research, priority 2010, dated 2017).

Columns and labels:
kappa3 opioid receptor = kappa3 opioid receptor (Mus musculus, UniProt P42866); test: Kappa3 opioid receptor competition binding in whole brain membrane homogenates
Experimental: (§1) Receptor-Binding Assays: Competition-binding assays in MOR-CHO (mu), DOR-CHO (delta) and KOR-CHO (kappa) were performed at 25° C. in 50 mM potassium phosphate buffer, pH 7.4, containing 5 mM magnesium sulfate (only in the case of CHO-MOR). Specific binding was defined as the difference between total binding and nonspecific binding, determined in the presence of 8 μM levallorphan. 125I-SMGP1 (IBNtxA) was used as the universal radioligand to determine the relative affinity of drugs in MOR1-CHO, KOR1-CHO and DOR1-CHO. Protein concentrations were generally 20-40 μg/mL, incubation times were 90 minutes for all assays. (Majumdar et al., Bioorg Med Chem Lett. 2011, 21(13), 4001-4004). Kappa3 opioid receptor competition binding assays were carried out in whole brain membrane homogenates, performed at 25° C. in 50 mM potassium phosphate buffer, pH 7.4, containing 5 mM magnesium sulfate for 90 minutes in presence of 100 nM CTAP, 100 nM U50488h and 100 nM DPDPE. ^125I-SMGP1 was used as the radioligand in the assays, typically 500 micrograms of protein and 0.15 nM of the radioligand was used in a 0.5 mL assay. Specific binding was defined as the difference between total binding and nonspecific binding, determined in the presence of 8 μM levallorphan. Protein concentration was determined as described by Lowry et al. [J Biol Chem 1951, 193, 265-275; (1951)] using bovine serum albumin as the standard. Kd, Bmax, and Ki values were calculated by nonlinear regression analysis (GraphPadPrism). […] The “kappa3 opioid receptor” as referred to herein is the receptor first characterized by Clark et al. [J. Pharmacol. Exp. Ther. 251, 461-468 (1989)].

[1] = target: T1, MOR (mu opioid receptor), MOR1-CHO (Mus musculus, UniProt P42866); test: Competition binding in MOR-CHO, 125I-SMGP1 radioligand
T1 construct: expressed in transfected cells; host or cells: CHO
Experimental: as §1

mice [2] = test: Respiratory depression assessment (MouseOx pulse oximeter); conditions: 2.5 mg/kg subcutaneously (five times the ED50), CD1 mice
Experimental: Respiratory Depression assessment: The MouseOx Pulse Oximeter system (Starr Life Sciences, Pittsburgh, Pa.) was used to assess respiratory rate in awake, freely-moving, adult male CD1 mice. For 30 minutes, each animal was habituated to the device using a blank collar, after which the oximeter collar was placed on the animal. A five-second average breath rate was assessed at 5 minute intervals. A baseline for each animal was obtained over a 25 minute period prior to drug injection; beginning 15 minutes post-injection, measurements were then taken for a period of 35 minutes.

mice [3] = test: Radiant heat tail flick analgesia assay; format: in vivo
Experimental: Tail Flick Analgesia Assays: Male CD-i mice (25-35 g; Charles River Breeding Laboratories, Wilmington, Mass.) were maintained on a 12-hr light/dark cycle with Purina rodent chow and water available ad libitum. Mice were housed in groups of five until testing. Analgesia was determined using the radiant heat tail-flick technique [D'Amour and Smith, J. Pharmacol. Exp. Ther. 72: 74-79 (1941)]. For the tail-flick assay, the latency to withdraw the tail from a focused light stimulus was measured electronically using a photocell. […] Post-treatment tail-flick latencies were determined as indicated for each experiment, and a maximal latency of 10 sec for tail-flick was used to minimize tissue damage. All experiments were replicated at least twice with each group in each experiment containing at least 10 mice and the combined results of all replications presented.

mice [4] = test: Gastrointestinal motility (charcoal meal transit) assay; format: in vivo
Experimental: Gastrointestinal motility assay: Gastrointestinal transit was determined as described by Paul and Pasternak [Eur. J. Pharmacol. 149 (1988), pp. 403-404.)]. In brief, after withholding food for 8 hours, animals received the indicated drug and then were given a charcoal meal (0.2 mL; 10% of purified charcoal and 2.5% of gum tragacanth, w/v) by gavage and were sacrificed 30 min later. The distance traveled by the charcoal meal was then measured and reported in centimeters.

mice [5] = test: Tolerance studies and effects of chronic administration (cross tolerance, precipitated withdrawal)
Experimental: Tail-flick latencies were determined before and 30 minutes after each injection. See Gistrak et al. (1989) op. cit. […] Similarly, a group of mice (n=10) were made tolerant to test compound by twice daily injections to 1 mg/kg, s.c. for 10 days. […] Animals were evaluated for signs of diarrhea and jumping. See Gistrak et al. (1989) op. cit.

[6] = target: T2, DOR (delta opioid receptor), DOR1-CHO (Mus musculus, UniProt P32300); test: Competition binding in DOR-CHO, 125I-SMGP1 radioligand
T2 construct: expressed in transfected cells; host or cells: CHO
Experimental: Receptor-Binding Assays: Competition-binding assays in MOR-CHO (mu), DOR-CHO (delta) and KOR-CHO (kappa) were performed at 25° C. in 50 mM potassium phosphate buffer, pH 7.4, containing 5 mM magnesium sulfate (only in the case of CHO-MOR). Specific binding was defined as the difference between total binding and nonspecific binding, determined in the presence of 8 μM levallorphan. […] Protein concentrations were generally 20-40 μg/mL, incubation times were 90 minutes for all assays. […] Specific binding was defined as the difference between total binding and nonspecific binding, determined in the presence of 8 μM levallorphan. […] Kd, Bmax, and Ki values were calculated by nonlinear regression analysis (GraphPadPrism).

[7] = target: T3, KOR (kappa opioid receptor), KOR1-CHO (Mus musculus, UniProt P33534); test: Competition binding in KOR-CHO, 125I-SMGP1 radioligand
T3 construct: expressed in transfected cells; host or cells: CHO
Experimental: as §1

For `O=C(NC1CCC2(O)C3Cc4ccc(O)c5c4C2(CCN3CC2CC2)C1O5)c1cccc(I)c1` (stereo not drawn) [SMGP 1], the “affinity for the kappa3 site in words” value (kappa3 opioid receptor) was “high affinity”, the Ki [1] was 0.11 nM and the “respiratory depression as compared to saline” value (mice [2]) was “no statistically significant depression”. The ED50 (mice [3]; Mus musculus, male CD-i mice, radiant heat tail-flick) was 0.53 mg/kg, the “analgesic potency in mice relative to morphine” value (mice [3]; mice) was “potency greater than morphine” and the “effect on the inhibition of gastrointestinal transit” value (mice [4]) was “minimal”. For the same molecule, the “physical dependence (withdrawal on challenge with an antagonist after chronic administration)” value (mice [5]; chronic administration, challenge with antagonist) was “no physical dependence”, the “tolerance with chronic administration” value (mice [5]; chronic administration, mice) was “some tolerance” and the “analgesic response in highly morphine tolerant mice” value (mice [5]; highly morphine tolerant mice) was “normal analgesic response”. For the same molecule, the “cross tolerance to morphine” value (mice [5]; mice) was “no cross tolerance to morphine”, the Ki [6] was 0.24 nM and the Ki [7] was 0.03 nM.
